Where two headings read alike, the source gives them in different places.
Test system: recombinant rabies virus 1088 strain expressing Gaussia Luciferase (GLuc) (1088/GLuc)
Type: cell-based

Work on O=C(NCc1ccccc1)[C@]12NC[C@H]3C[C@H]1CN(Cc1ccccc1)[C@H]2[C@@H]3Cc1cccc2ccccc12 [IB-777] yielded an IC50 (read-out: Anti-rabies activity) of under 5 µM.
Molecule NC(=O)C[C@@H]1[C@@H]2[C@@H]3CN[C@@]1(C(=O)NCCO)C[C@@H]3CN2Cc1cccc2ccccc12 [IF-230] has an IC50 (read-out: Anti-rabies activity) of 10 to 30 µM.
With Cc1ccc(CN2CC3CC4C=NC3(C(=O)NCc3ccccc3)C2C4CC(C)C)cc1 (stereo not drawn) [IIB-86] the IC50 (read-out: Anti-rabies activity) was 5 to 10 µM.
NC(=O)CCNC(=O)[C@]12NC[C@H]3C[C@H]1CN(CC1CCCCC1)[C@H]2[C@@H]3Cc1ccccc1 [IB-637] gave an IC50 (read-out: Anti-rabies activity) of under 5 µM.
Molecule O=C(O)CCNC(=O)[C@]12NC[C@H]3C[C@H]1CN(CC1CCCCC1)[C@H]2[C@@H]3Cc1cccc2ccccc12 [IB-614] has an IC50 (read-out: Anti-rabies activity) of 10 to 30 µM.
O=C(NCc1ccccc1)[C@@]12C[C@@H]3CN(CC4CCCCC4)[C@@H]([C@@H]3CN1)[C@H]2Cc1ccc(O)cc1 [IF-645] was tested, and the IC50 (read-out: Anti-rabies activity) was 10 to 30 µM.
CC(C)CCN1C[C@H]2C[C@]3(C(=O)NCc4ccc(O)cc4)NC[C@H]2[C@H]1[C@H]3CCC(=O)O [IF-445] gave an IC50 (read-out: Anti-rabies activity) of 10 to 30 µM.
CC(C)CC1C2C=NC3(C(=O)NCc4ccccc4)C(C2)CN(Cc2ccc(N(C)C)cc2)C13 (stereo not drawn) [IIB-94] gave an IC50 (read-out: Anti-rabies activity) of 5 to 10 µM.
N=C(N)NCCCNC(=O)[C@]12NC[C@H]3C[C@H]1CN(Cc1cccc4ccccc14)[C@H]2[C@@H]3Cc1ccccc1 [IB-351] was tested, and the IC50 (read-out: Anti-rabies activity) was 10 to 30 µM.
For CC(C)C[C@@H]1[C@@H]2[C@@H]3CN[C@@]1(C(=O)NCc1ccc(O)cc1)C[C@@H]3CN2Cc1ccc(N(C)C)cc1 [IF-867], the IC50 (read-out: Anti-rabies activity) was 10 to 30 µM.
With O=C(NCc1ccc(O)cc1)[C@@]12C[C@@H]3CN(CCc4ccccc4)[C@@H]([C@@H]3CN1)[C@H]2Cc1ccccc1 [IF-469] the IC50 (read-out: Anti-rabies activity) was 10 to 30 µM.
Work on CC(C)CCNC(=O)[C@@]12C[C@@H]3CN(CC4CCCCC4)[C@@H]([C@@H]3CN1)[C@H]2Cc1ccc(O)cc1 [IF-709] yielded an IC50 (read-out: Anti-rabies activity) of 10 to 30 µM.
Molecule CC(C)CN1C[C@H]2C[C@]3(C(=O)NCc4ccc(F)cc4)NC[C@H]2[C@H]1[C@H]3Cc1ccccc1 [IF-815] has an IC50 (read-out: Anti-rabies activity) of under 5 µM.
CC(C)CN1C[C@@H]2C[C@@H]3CN[C@]2(C(=O)NCCO)[C@@H]1[C@@H]3Cc1cccc2ccccc12 [IB-687] gave an IC50 (read-out: Anti-rabies activity) of 10 to 30 µM.
For CC(C)CNC(=O)[C@]12NC[C@H]3C[C@H]1CN(CCc1ccccc1)[C@H]2[C@@H]3Cc1ccc(O)cc1 [IB-625], the IC50 (read-out: Anti-rabies activity) was 10 to 30 µM.
In the case of CC(C)CCN1C[C@@H]2C[C@@H]3CN[C@]2(C(=O)NCCC(=O)O)[C@@H]1[C@@H]3Cc1cccc2ccccc12 [IB-381], the IC50 (read-out: Anti-rabies activity) is reported as 10 to 30 µM.
With NC(=O)C[C@@H]1[C@@H]2[C@@H]3CN[C@@]1(C(=O)NCc1cccc4ccccc14)C[C@@H]3CN2CCc1ccccc1 [IF-223] the IC50 (read-out: Anti-rabies activity) was 10 to 30 µM.
For CC(C)CCN1C[C@H]2C[C@]3(C(=O)NCCC(=O)O)NC[C@H]2[C@H]1[C@H]3Cc1cccc2ccccc12 [IF-413], the IC50 (read-out: Anti-rabies activity) was 10 to 30 µM.
CC(C)CN1C[C@H]2C[C@]3(C(=O)NCc4ccccc4)NC[C@H]2[C@H]1[C@H]3CC1CCCCC1 (relative stereo) [IF-38] was tested, and the IC50 (read-out: Anti-rabies activity) was 10 to 30 µM.
With CC(C)CCC1C2CNC3(C(=O)NCCc4ccccc4)C(C2)CN(CCO)C13 (stereo not drawn) [IB-531] the IC50 (read-out: Anti-rabies activity) was 10 to 30 µM.
CC(C)CC[C@@H]1[C@H]2CN[C@@]3(C(=O)NCCO)[C@@H](C2)CN(Cc2ccc(F)cc2)[C@@H]13 [IB-668] showed an IC50 (read-out: Anti-rabies activity) of under 5 µM.
For CC(C)C[C@@H]1[C@@H]2[C@@H]3CN[C@@]1(C(=O)NCc1cccc4ccccc14)C[C@@H]3CN2Cc1ccc(O)cc1 (relative stereo) [IF-578], the IC50 (read-out: Anti-rabies activity) was under 5 µM.
Molecule O=C(NCCO)[C@@]12C[C@@H]3CN(Cc4cccc5ccccc45)[C@@H]([C@@H]3CN1)[C@H]2Cc1cccc2ccccc12 [IF-614] has an IC50 (read-out: Anti-rabies activity) of 10 to 30 µM.
Work on CC(C)CC1C2C3C=NC1(C(=O)NCc1ccccc1)CC3CN2Cc1ccc(Cl)cc1 (stereo not drawn) [IIF-83] yielded an IC50 (read-out: Anti-rabies activity) of under 5 µM.
In the case of CC(C)C[C@@H]1[C@@H]2[C@@H]3CN[C@@]1(C(=O)NCCO)C[C@@H]3CN2CC1CCCCC1 [IF-606], the IC50 (read-out: Anti-rabies activity) is reported as 10 to 30 µM.
O=C(NCCc1ccccc1)[C@@]12C[C@@H]3CN(Cc4ccccc4)[C@@H]([C@@H]3CN1)[C@H]2Cc1ccc(O)cc1 [IF-722] showed an IC50 (read-out: Anti-rabies activity) of under 5 µM.
Molecule CC(C)CCC1C2CNC3(C(=O)NCCc4ccccc4)C(C2)CN(Cc2ccc(O)cc2)C13 (stereo not drawn) [IB-544] has an IC50 (read-out: Anti-rabies activity) of 10 to 30 µM.
Work on O=C(NCc1ccccc1)[C@@]12C[C@@H]3CN(CCc4ccccc4)[C@@H]([C@@H]3CN1)[C@H]2Cc1ccc(O)cc1 [IF-640] yielded an IC50 (read-out: Anti-rabies activity) of 10 to 30 µM.
NC(=O)CN1C[C@H]2C[C@]3(C(=O)NCc4cccc5ccccc45)NC[C@H]2[C@H]1[C@H]3Cc1cccc2ccccc12 (relative stereo) [IF-91] showed an IC50 (read-out: Anti-rabies activity) of under 5 µM.
For N=C(N)NCCCN1C[C@@H]2C[C@@H]3CN[C@]2(C(=O)NCc2ccccc2)[C@@H]1[C@@H]3Cc1cccc2ccccc12 [IB-300], the IC50 (read-out: Anti-rabies activity) was 10 to 30 µM.
CC(C)CCN1C[C@@H]2C[C@@H]3CN[C@]2(C(=O)NCc2cccc4ccccc24)[C@@H]1[C@@H]3CO [IB-426] was tested, and the IC50 (read-out: Anti-rabies activity) was under 5 µM.
Molecule CC(C)CN1CC2CC3CNC2(C(=O)NCCC(N)=O)C1C3CCc1ccccc1 (stereo not drawn) [IB-539] has an IC50 (read-out: Anti-rabies activity) of 10 to 30 µM.
Molecule O=C(O)CC[C@@H]1[C@H]2CN[C@@]3(C(=O)NCc4cccc5ccccc45)[C@@H](C2)CN(CC2CCCCC2)[C@@H]13 [IB-389] has an IC50 (read-out: Anti-rabies activity) of 10 to 30 µM.
With CC(C)CNC(=O)C12NCC3CC1CN(CCc1ccccc1)C2C3CCC(=O)O (stereo not drawn) [IB-508] the IC50 (read-out: Anti-rabies activity) was 10 to 30 µM.
Work on CC(C)CC[C@@H]1[C@@H]2[C@@H]3CN[C@@]1(C(=O)NCCC(N)=O)C[C@@H]3CN2CC(C)C [IF-300] yielded an IC50 (read-out: Anti-rabies activity) of 10 to 30 µM.
With O=C(NCCO)[C@@]12C[C@@H]3CN(CC4CCCCC4)[C@@H]([C@@H]3CN1)[C@H]2Cc1ccccc1 [IF-486] the IC50 (read-out: Anti-rabies activity) was 10 to 30 µM.
CC(C)CCNC(=O)[C@]12NC[C@H]3C[C@H]1CN(Cc1ccccc1)[C@H]2[C@@H]3Cc1ccc(O)cc1 [IB-678] gave an IC50 (read-out: Anti-rabies activity) of under 5 µM.
Work on CC(C)CCN1C[C@@H]2C[C@@H]3CN[C@]2(C(=O)NCc2ccccc2)[C@@H]1[C@@H]3CC(C)C [IB-876] yielded an IC50 (read-out: Anti-rabies activity) of 10 to 30 µM.
In the case of N=C(N)NCCC[C@@H]1[C@@H]2[C@@H]3CN[C@@]1(C(=O)NCc1ccccc1)C[C@@H]3CN2Cc1cccc2ccccc12 [IF-236], the IC50 (read-out: Anti-rabies activity) is reported as 10 to 30 µM.
With CC(C)CNC(=O)[C@@]12C[C@@H]3CN(Cc4ccc(F)cc4)[C@@H]([C@@H]3CN1)[C@H]2CC(N)=O [IF-262] the IC50 (read-out: Anti-rabies activity) was under 5 µM.
CC(C)C[C@@H]1[C@H]2CN[C@@]3(C(=O)NCc4ccccc4)[C@@H](C2)CN(Cc2ccc(F)cc2)[C@@H]13 [IB-773] showed an IC50 (read-out: Anti-rabies activity) of under 5 µM.
In the case of O=C(NCCO)[C@@]12C[C@@H]3CN(Cc4cccc5ccccc45)[C@@H]([C@@H]3CN1)[C@H]2Cc1ccccc1 [IF-603], the IC50 (read-out: Anti-rabies activity) is reported as 10 to 30 µM.
Work on CC(C)CCN1C[C@H]2C[C@]3(C(=O)NCc4ccc(F)cc4)NC[C@H]2[C@H]1[C@H]3Cc1ccccc1 (relative stereo) [IF-547] yielded an IC50 (read-out: Anti-rabies activity) of under 5 µM.
Molecule CCOc1ccc(CN2C[C@H]3C[C@]4(C(=O)NCc5ccccc5)NC[C@H]3[C@H]2[C@H]4CC(C)C)cc1 [IF-853] has an IC50 (read-out: Anti-rabies activity) of 5 to 10 µM.
Molecule CC(C)CCC1C2CNC3(C(=O)NCc4ccc(O)cc4)C(C2)CN(Cc2ccc(F)cc2)C13 (stereo not drawn) [IB-582] has an IC50 (read-out: Anti-rabies activity) of 10 to 30 µM.
In the case of CC(C)CC1C2C3C=NC1(C(=O)NCc1ccccc1)CC3CN2Cc1ccc(C(C)(C)C)cc1 (stereo not drawn) [IIF-95], the IC50 (read-out: Anti-rabies activity) is reported as under 5 µM.
CCCCCCNC(=O)[C@@]12C[C@@H]3CN(CC(N)=O)[C@@H]([C@@H]3CN1)[C@H]2CCc1ccccc1 [IF-109] was tested, and the IC50 (read-out: Anti-rabies activity) was 10 to 30 µM.
In the case of CC(C)C[C@@H]1[C@H]2CN[C@@]3(C(=O)NCc4ccccc4)[C@@H](C2)CN(Cc2ccc(Cl)cc2)[C@@H]13 [IB-864], the IC50 (read-out: Anti-rabies activity) is reported as 5 to 10 µM.
Work on CC(C)CN1C[C@H]2C[C@]3(C(=O)NCc4ccccc4)NC[C@H]2[C@H]1[C@H]3CCc1ccccc1 (relative stereo) [IF-11] yielded an IC50 (read-out: Anti-rabies activity) of 10 to 30 µM and an IC50 (read-out: IC50) of 17.5 µM.
For O=C(NCCO)[C@]12NC[C@H]3C[C@H]1CN(Cc1ccc(F)cc1)[C@H]2[C@@H]3CCc1ccccc1 [IB-669], the IC50 (read-out: Anti-rabies activity) was 10 to 30 µM.
